Drawing on ChEMBL document CHEMBL6078706, “Deciphering the Comprehensive Structure-Activity Relationship of Sunshinamide for Breast Cancer Therapy through Dual Modulation of Apoptotic and Ferroptotic Pathways via TrxR1 and Gpx4 Inhibition” (J Med Chem, 2024), this text covers Activity and inhibition for three molecules.

Series [1] concerns MDA-MB-468. The series is described as follows: Induction of ferroptosis in human MDA-MB-468 cells expressing GPX4 assessed as reduction in lipid peroxidation level at 25 nM incubated for 6 hrs by C11-BODIPY staining based flow cytometry analysis. It counts as functional, cell-based.
The subject of series [2] is MDA-MB-468. The experiment in a line: Induction of ferroptosis in human MDA-MB-468 cells assessed as increase in lipid peroxidation at 25 nM by C11-BODIPY staining based flow cytometry analysis. Particulars: time <= 24.0 hrs. It counts as functional, cell-based.
Series [3] has as its target T1, Phospholipid hydroperoxide glutathione peroxidase GPX4 (Homo sapiens) (UniProt P36969).
T1 sequence (whole entry): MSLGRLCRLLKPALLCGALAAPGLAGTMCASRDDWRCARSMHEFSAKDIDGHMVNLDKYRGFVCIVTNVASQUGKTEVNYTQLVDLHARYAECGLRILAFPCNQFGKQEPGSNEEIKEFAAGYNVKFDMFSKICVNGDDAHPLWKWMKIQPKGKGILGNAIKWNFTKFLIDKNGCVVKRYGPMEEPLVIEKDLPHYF
The series is described as follows: Inhibition of GPX4 in human MDA-MB-468 cells incubated for 12 hrs in presence of NADPH. It counts as cell-based. The settings on record: dose 25.0 nM.

Series [4] deals with MDA-MB-468. The series is described as follows: Induction of ferroptosis in human MDA-MB-468 cells assessed as increase in cell viability at 25 nM incubated for 48 hrs in presence of Z-VAD. It counts as functional, cell-based.
Series [5] has as its system MDA-MB-468. The series is described as follows: Induction of mitochondrial ROS generation in human MDA-MB-468 cells at 25 nM incubated for 6 hrs by MitoSOX dye staining based flow cytometry analysis. It counts as functional, cell-based.
In series [6] the test system is MDA-MB-468. The experiment in a line: Induction of endoplasmic reticulum (ER) stress-mediated apoptosis in human MDA-MB-468 cells assessed as increase in ATF4 expression at 25 nM measured at 4 to 48 hrs by Western blot analysis. The class given is functional, cell-based. Particulars: time 4-48 hrs.
Series [7] has as its system MDA-MB-468. The experiment in a line: Induction of endoplasmic reticulum (ER) stress-mediated apoptosis in human MDA-MB-468 cells assessed as reduction in ATF4 expression at 25 nM measured for 12 hrs in presence of 4-PBA by Western blot analysis. The class given is functional, cell-based.
The target of series [8] is T2, Thioredoxin reductase 1, cytoplasmic (Homo sapiens) (UniProt Q16881).
T2 sequence (whole entry): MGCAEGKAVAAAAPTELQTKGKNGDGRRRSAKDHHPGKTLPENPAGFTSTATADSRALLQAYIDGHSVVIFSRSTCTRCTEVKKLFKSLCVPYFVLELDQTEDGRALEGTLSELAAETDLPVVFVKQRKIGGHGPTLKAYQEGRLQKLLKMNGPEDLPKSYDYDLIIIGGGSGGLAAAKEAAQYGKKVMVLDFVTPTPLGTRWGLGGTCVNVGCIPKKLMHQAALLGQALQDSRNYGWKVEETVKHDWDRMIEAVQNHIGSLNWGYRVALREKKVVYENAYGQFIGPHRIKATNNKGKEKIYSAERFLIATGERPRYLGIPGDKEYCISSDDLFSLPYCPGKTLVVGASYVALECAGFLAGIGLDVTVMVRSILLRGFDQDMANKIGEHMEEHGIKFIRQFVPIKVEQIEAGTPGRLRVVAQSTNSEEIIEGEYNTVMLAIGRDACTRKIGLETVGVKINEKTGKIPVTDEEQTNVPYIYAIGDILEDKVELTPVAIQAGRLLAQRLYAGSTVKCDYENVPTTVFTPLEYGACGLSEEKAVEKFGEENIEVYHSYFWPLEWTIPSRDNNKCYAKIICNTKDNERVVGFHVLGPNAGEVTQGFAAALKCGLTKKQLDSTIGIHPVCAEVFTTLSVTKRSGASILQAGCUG
The series is described as follows: Inhibition of recombinant TRXR1 (unknown origin) assessed as reduction in DTNB incubated for 2 hrs in presence of NADPH by microplate reader analysis.

In series [9] the test system is MDA-MB-468. The series is described as follows: Induction of endoplasmic reticulum (ER) stress-mediated apoptosis in human MDA-MB-468 cells assessed as increase in CHOP expression at 25 nM measured at 4 to 48 hrs by Western blot analysis. The class given is functional, cell-based. Particulars: time 4-48 hrs.
Series [10] relates to MDA-MB-468. The experiment in a line: Induction of apoptosis in human MDA-MB-468 cells assessed as increase in cleaved PARP level at 25 nM measured after 48 hrs by Western blot analysis. It counts as functional, cell-based.
The nature of series [11]: Toxicity in female BALB/c mouse implanted with mouse 4T1 cells assessed as liver damage at 10 mg/kg, iv. It counts as organism-based. Particulars: in vivo.
A short description of series [12]: Toxicity in female BALB/c mouse implanted with mouse 4T1 cells assessed as kidney abnormality at 10 mg/kg, iv. It counts as organism-based. The settings on record: in vivo.
The nature of series [13]: Toxicity in female BALB/c mouse implanted with mouse 4T1 cells assessed as spleen damage at 10 mg/kg, iv. The settings on record: in vivo. It counts as organism-based.
The subject of series [14] is 4T1. The experiment in a line: Antitumor activity against mouse 4T1 cells implanted in female BALB/c mouse assessed as increase in MDA level in tumor at 10 mg/kg, iv administered upto 5 days by Western blot analysis. It counts as functional, organism-based. Particulars: time <= 5.0 day.
In series [15] the test system is 4T1. The series is described as follows: Antitumor activity against mouse 4T1 cells implanted in female BALB/c mouse assessed as increase in phospho PERK level in tumor at 10 mg/kg, iv administered upto 5 days by Western blot analysis. The class given is functional, organism-based. Particulars: time <= 5.0 day.
The nature of series [16]: Toxicity in female BALB/c mouse implanted with mouse 4T1 cells assessed as kidney inflammation at 10 mg/kg, iv. Particulars: in vivo. The class given is organism-based.
The test system of another series is Cisplatin-resistant 4T1. The series is described as follows: Antiproliferative activity against mouse Cisplatin-resistant 4T1 cells assessed as reduction in cell viability incubated for 48 hrs by MTT assay. The class given is functional, cell-based.
The subject of series [17] is MDA-MB-468. The experiment in a line: Induction of apoptosis in human MDA-MB-468 cells assessed as increase in cleaved caspase 3 level at 25 nM measured after 48 hrs by Western blot analysis. It counts as functional, cell-based.
The test system of series [18] is MDA-MB-468. The experiment in a line: Antiproliferative activity against human MDA-MB-468 cells assessed as cell viability at 10 nM incubated for 48 hrs by MTT assay. The class given is functional, cell-based.
A short description of series [19]: Toxicity in female BALB/c mouse implanted with mouse 4T1 cells assessed as lung abnormality at 10 mg/kg, iv. It counts as organism-based. The settings on record: in vivo.
The test system of series [20] is 4T1. The series is described as follows: Antitumor activity against mouse 4T1 cells implanted in female BALB/c mouse model assessed as increase in cleaved caspase-3 level in tumor at 10 mg/kg, iv administered upto 5 days. It counts as functional, organism-based. Particulars: time <= 5.0 day.
A short description of series [21]: Toxicity in female BALB/c mouse implanted with mouse 4T1 cells assessed as lung inflammation at 10 mg/kg, iv. It counts as organism-based. The settings on record: in vivo.
Series [22] can be described thus: Toxicity in female BALB/c mouse implanted with mouse 4T1 cells assessed as lung lesion at 10 mg/kg, iv. Particulars: in vivo. It counts as organism-based.
Series [23] can be described thus: Toxicity in female BALB/c mouse implanted with mouse 4T1 cells assessed as liver lesion at 10 mg/kg, iv. It counts as organism-based. The settings on record: in vivo.
In series [24] the test system is 4T1. The series is described as follows: Antitumor activity against mouse 4T1 cells implanted in female BALB/c mouse assessed as increase in CHOP level in tumor at 10 mg/kg, iv administered upto 5 days by Western blot analysis. It counts as functional, organism-based. Particulars: time <= 5.0 day.
Series [25] relates to 4T1. The series is described as follows: Antitumor activity against mouse 4T1 cells implanted in female BALB/c mouse assessed as induction of intracellular ROS accumulation in tumor at 10 mg/kg, iv administered upto 5 days. The class given is functional, organism-based. The settings on record: time <= 5.0 day.
Series [26] is described as follows: Toxicity in female BALB/c mouse implanted with mouse 4T1 cells assessed as heart abnormality at 10 mg/kg, iv. It counts as organism-based. Particulars: in vivo.
Series [27] can be described thus: Toxicity in female BALB/c mouse implanted with mouse 4T1 cells assessed as spleen inflammation at 10 mg/kg, iv. The class given is organism-based. Particulars: in vivo.
Series [28] in a line: Toxicity in female BALB/c mouse implanted with mouse 4T1 cells assessed as liver abnormality at 10 mg/kg, iv. It counts as organism-based. Particulars: in vivo.

The source made the active and inactive calls. No cut-off for these calls is given here.

Turning to `CCCCCCC[C@@H]1CC(=O)N[C@H](Cc2ccccc2)C(=O)N[C@@H](CSC)C(=O)N[C@@H](CSC)C(=O)O1`, the result in the series on MDA-MB-468 [1], in the series with MDA-MB-468 [6] and with MDA-MB-468 [9] was Active. For the same molecule, the Activity result in the series with MDA-MB-468 [2] was “Time-dependent-effect”. For the same molecule, in [3], the inhibition result is “Dose-dependent-effect”. For the same molecule, the result in the series on MDA-MB-468 [4], with MDA-MB-468 [5] and in the series with MDA-MB-468 [7] was inactive. Besides, the inhibition result in [8] is “inactive”.

On to `CCCCCCC[C@@H]1CC(=O)N[C@H](Cc2ccccc2)C(=O)N[C@H]2CSSC[C@H](NC2=O)C(=O)O1`, for which the outcome with MDA-MB-468 [10], in the series on 4T1 [14], in the series on 4T1 [15], in the series on MDA-MB-468 [5], with Cisplatin-resistant 4T1 and in the series on MDA-MB-468 [17] was Active. The outcome in the series on MDA-MB-468 [7], in the series on MDA-MB-468 [18], with 4T1 [20], in the series on 4T1 [24] and with 4T1 [25] was Active. Also, the Activity entry in [11], in series [12], in [13], in series [16], in series [19] and in series [21] was “Non-toxic” in each case. Moreover, the Activity result in [22], in series [23], in series [26], in series [27] and in [28] was “Non-toxic” throughout. Besides, the inhibition entry in [3] was “Dose-dependent-effect”. The outcome with MDA-MB-468 [4] was inactive. Besides, the inhibition entry in [8] is “Active”.

For the molecule `CCCCCCC[C@@H](O)CC(=O)N[C@H](Cc1ccccc1)C(=O)N[C@H]1CSSC[C@@H](C(=O)O)NC1=O`, the outcome with MDA-MB-468 [1], with MDA-MB-468 [6] and in the series with MDA-MB-468 [9] was Active. In addition, the Activity result in the series with MDA-MB-468 [2] is “Time-dependent-effect”. Besides, the inhibition entry in [3] was “Dose-dependent-effect”. The outcome in the series on MDA-MB-468 [4], in the series on MDA-MB-468 [5] and in the series on MDA-MB-468 [7] was inactive. For the same molecule, the inhibition result in [8] was “inactive”.
